No end group written: not given here.
Key:
BALB/c mice [1] = assay: Effects of peptide on middle ear without added bacteria; type: in vivo, mouse; conditions: 10 μM, no bacteria, 3 days; p=0.104, 0.880, 0.891
Procedure: BALB/c (Bagg albino) mice, about 8-12 weeks of age, are anesthetized with a subcutaneous injection of xylazine & ketamine (about 0.1 mg/30 gm body weight) and their ears examined under the operating microscope to assure they are free of infection or perforation. One group of animals is injected with PBS (Phospho-buffered saline) in one ear and with about 10 μM of a peptide of Table 1 in the opposite ear, to determine the effect of peptide without added bacteria. A second group of animals receive about 5.0 μl of PBS plus heat-inactivated S. pneumoniae (about 10^9 CFU/ml) in one ear and about 5.0 μl of peptide (about 10 μM) plus heat-inactivated S. pneumoniae (about 10^9 CFU/ml) in the opposite ear. […] Inflammation is quantified by measuring 1) area of fluid present in the middle ear; 2) number of cells in middle ear fluid; and 3) thickness of the tympanic membrane (TM) taken at a point away from the injection site. Data are obtained from mice (n=18) injected with PBS alone for each of the histological parameters measured, to serve as a control group.
Five mice were injected in one ear with PBS and in the opposite ear with 10 μM peptide P13 (SEQ ID NO: 369). Three days later the animals were killed, and the middle ears embedded, sectioned, stained and evaluated for fluid area, infiltrating cell number, and thickness of the tympanic membrane. […]

BALB/c mice [2] = assay: Ototoxicity of topical administration in normal mice, ABR; type: in vivo, mouse; conditions: 1, 10, 10 (twice) or 60 μg/30 μL topically; ABR 1-4 weeks
Procedure: P13 (SEQ ID NO: 369) was investigated for possible negative impact on hearing in normal mice upon administration by ear drops. BALB/c mice, 16 weeks of age, (n=16) received two baseline auditory brainstem response (ABR) tests one week apart, and an otoscopic exam in both ears. ABR stimuli consisted of 20 tone-burst trains at 4 kHz, 8 kHz, 16 kHz and 32 kHz at five intensity levels in 10 dB steps, as previously described. An otoscopic exam was performed using an operating microscope to establish the clinical symptoms of AOM, as previously described. Any animal with an abnormal ABR or exam on pre-screen was not entered into the study.
All 16 animals remained in the study and were divided into five groups as follows:
group 1: (n=6 ears) 1 μg P13 (SEQ ID NO: 369)/30 μl, topically, given once;
group 2: (n=7 ears) 10 μg P13 (SEQ ID NO: 369)/30 μL, topically, given once;
group 3: (n=7 ears) 10 μg P13 (SEQ ID NO: 369)/30 μL, topically, given twice, 24 hours apart;
group 4: (n=6 ears) 60 μg P13 (SEQ ID NO: 369)/30 μL, topically, given once; and
ABRs were performed at one, two, three and four weeks post P13 (SEQ ID NO: 369) treatment. The two baseline ABRs were averaged and compared to the ABRs post P13 (SEQ ID NO: 369) treatment.

[3] = tested on: TNF-α production in RAW264.7 cells; type: cell-based, murine; conditions: 30 μg/mL, 15 minutes pre-incubation, 4 hours

DIVKLTVYDCI [Peptide P13, DIVKLTVYDCI]
differences between PBS-injected ear and P13-injected ear in fluid area, cell number, tympanic membrane thickness (BALB/c mice [1]): no differences | impact on hearing thresholds in normal mice (ototoxicity) (BALB/c mice [2]): did not negatively impact hearing thresholds

EEYFMYRGLLGLRIKYG [Peptide P7]
NCE-stimulated TNF-α production compared to control peptide [3]: significantly inhibited

Source: patent publication US20140378395A1, “Peptides for the Treatment of Hearing” (13Therapeutics, Inc., priority 2011, published 2014)
